In article PMC5811606, “Characterization of ^111In-labeled Glucose-Dependent Insulinotropic Polypeptide as a Radiotracer for Neuroendocrine Tumors” (Scientific Reports, 2018):
Read-outs that look alike come from different tables or passages of the source.

Assay: Biodistribution study, BHK-GIPR tumor mice
Format: in vivo, BALB/c nude mice
Conditions: female, mouse, iv, total radioactivity, BHK-GIPR tumor BALB/c nude mice, i.v., 0.2 µg, mean n=5; for tissue uptake at 1 h / tissue uptake at 4 h / tissue uptake at 24 h: BALB/c nude; for tissue uptake at 24 h / tissue to tissue ratio at 24 h: 24 h p.i.
Procedure: All animal experiments were approved by the Animal Welfare Body of the Radboud University, Nijmegen, The Netherlands and carried out in accordance with their guidelines. Six to eight weeks old, female BALB/c nude mice and C3H mice were purchased from Janvier labs (Le Genest Saint Isle, France). For all in vivo experiments, 6-8 weeks old female BALB/c nude mice were injected subcutaneously in the right shoulder with 0.2 ml of a 2.5 × 10^7 cells/ml suspension of BHK-GIPR transfected cells or with 0.2 ml of a 2.5 × 10^7 cells/ml suspension of NES2Y cells mixed with matrigel (2:1) in the right shoulder. When the tumor reached a diameter of 2-5 mm, mice were randomly divided in groups.
BALB/c nude mice bearing BHK-GIPR transfected tumors were injected intravenously with approximately 3 MBq (peptide dose 0.2 µg = 0.04 nmol) of [Lys^37(^111In-DTPA)]N-acetyl-GIP1-42 via the tail vein. At various time points after injection (1, 4 and 24 hours), mice were euthanized by CO2/O2 suffocation and blood, tumor and other relevant tissues were dissected, weighed and measured in a well type gamma counter. The percentage injected dose per gram (%ID/g) was calculated for each tissue. To determine whether the GIP1-42 uptake was GIPR mediated, 25 µg of unlabeled GIP1-42 was co-injected in a separate group (n = 5) and mice were euthanized four hours post-injection. BALB/c nude mice bearing NES2Y tumors (n = 5) were injected intravenously with approximately 3 MBq (peptide dose 0.2 µg = 0.04 nmol) of [Lys^37(^111In-DTPA)]N-acetyl-GIP1-42 via the tail vein. One hour after injection, mice were euthanized by CO2/O2 suffocation and blood, tumor and other relevant tissues were dissected, weighed and measured in a well type gamma counter. The percentage injected dose per gram (%ID/g) was determined for each tissue. To determine whether the GIP1-42 uptake was GIPR mediated, 25 µg of unlabeled GIP1-42 was co-injected in a separate group (n = 2) and mice were euthanized one hours post-injection.

Which results are given for `CC[C@H](C)[C@H](NC(=O)[C@H](CO)NC(=O)[C@H](Cc1ccc(O)cc1)NC(=O)[C@H](CC(=O)O)NC(=O)[C@H](CO)NC(=O)[C@@H](NC(=O)[C@H](Cc1ccccc1)NC(=O)[C@@H](NC(=O)CNC(=O)[C@H](CCC(=O)O)NC(=O)[C@H](C)NC(=O)[C@H](Cc1ccc(O)cc1)NC(C)=O)[C@@H](C)O)[C@@H](C)CC)C(=O)N[C@@H](C)C(=O)N[C@@H](CCSC)C(=O)N[C@@H](CC(=O)O)C(=O)N[C@@H](CCCCN)C(=O)N[C@H](C(=O)N[C@@H](Cc1c[nH]cn1)C(=O)N[C@@H](CCC(N)=O)C(=O)N[C@@H](CCC(N)=O)C(=O)N[C@@H](CC(=O)O)C(=O)N[C@@H](Cc1ccccc1)C(=O)N[C@H](C(=O)N[C@@H](CC(N)=O)C(=O)N[C@@H](Cc1c[nH]c2ccccc12)C(=O)N[C@@H](CC(C)C)C(=O)N[C@@H](CC(C)C)C(=O)N[C@@H](C)C(=O)N[C@@H](CCC(N)=O)C(=O)N[C@@H](CCCCN)C(=O)NCC(=O)N[C@@H](CCCCN)C(=O)N[C@@H](CCCCN)C(=O)N[C@@H](CC(N)=O)C(=O)N[C@@H](CC(=O)O)C(=O)N[C@@H](Cc1c[nH]c2ccccc12)C(=O)N[C@@H](CCCCNC(=O)CN(CCN(CCN(CC(=O)O)CC(=O)O)CC(=O)O)CC(=O)O)C(=O)N[C@@H](Cc1c[nH]cn1)C(=O)N[C@@H](CC(N)=O)C(=O)N[C@H](C(=O)N[C@H](C(=O)N[C@@H](CCC(N)=O)C(=O)O)[C@@H](C)O)[C@@H](C)CC)C(C)C)[C@@H](C)CC` [[Lys^37(^111In-DTPA)]N-acetyl-GIP1-42, metal not drawn]?
tissue uptake at 1 h (BHK-GIPR tumor, 0.2 ug, 1 h p.i., read-out: Tumor uptake): 4.69 %ID/g; tissue uptake at 4 h (BHK-GIPR tumor, 0.2 ug, 4 h p.i., read-out: Tumor uptake): 3.27 %ID/g; tissue uptake at 24 h (BHK-GIPR tumor, 0.2 ug, read-out: Tumor uptake): 2 ± 0.2 %ID/g; tissue uptake at 4 h (BHK-GIPR tumor, 4 h p.i. + xs (25 µg unlabeled GIP1-42), read-out: Tumor uptake): 0.8 ± 0.2 %ID/g; tissue uptake at 1 h (blood, 0.2 ug, 1 h p.i., read-out: Blood uptake): 0.248 %ID/g; tissue uptake at 4 h (blood, 0.2 ug, 4 h p.i., read-out: Blood uptake): 0.045 %ID/g; tissue uptake at 24 h (blood, 0.2 ug, read-out: Blood uptake): 0.017 %ID/g; tissue uptake at 4 h (blood, 4 h p.i. + xs (25 µg unlabeled GIP1-42), read-out: Blood uptake): 0.031 %ID/g; tissue uptake at 1 h (duodenum, 0.2 ug, 1 h p.i., read-out: Duodenum uptake): 0.561 %ID/g; tissue uptake at 4 h (duodenum, 0.2 ug, 4 h p.i., read-out: Duodenum uptake): 0.448 %ID/g; tissue uptake at 24 h (duodenum, 0.2 ug, read-out: Duodenum uptake): 0.378 %ID/g; tissue uptake at 4 h (duodenum, 4 h p.i. + xs (25 µg unlabeled GIP1-42), read-out: Duodenum uptake): 0.392 %ID/g; tissue uptake at 1 h (heart, 0.2 ug, 1 h p.i., read-out: Heart uptake): 0.2 %ID/g; tissue uptake at 4 h (heart, 0.2 ug, 4 h p.i., read-out: Heart uptake): 0.116 %ID/g; tissue uptake at 24 h (heart, 0.2 ug, read-out: Heart uptake): 0.081 %ID/g; tissue uptake at 4 h (heart, 4 h p.i. + xs (25 µg unlabeled GIP1-42), read-out: Heart uptake): 0.096 %ID/g; tissue uptake at 1 h (kidney, 0.2 ug, 1 h p.i., read-out: Kidney uptake): 211 %ID/g; tissue uptake at 4 h (kidney, 0.2 ug, 4 h p.i., read-out: Kidney uptake): 228 %ID/g; tissue uptake at 24 h (kidney, 0.2 ug, read-out: Kidney uptake): 173 %ID/g; tissue uptake at 4 h (kidney, 4 h p.i. + xs (25 µg unlabeled GIP1-42), read-out: Kidney uptake): 227 %ID/g; tissue uptake at 1 h (liver, 0.2 ug, 1 h p.i., read-out: Liver uptake): 1.1 %ID/g; tissue uptake at 4 h (liver, 0.2 ug, 4 h p.i., read-out: Liver uptake): 1.16 %ID/g; tissue uptake at 24 h (liver, 0.2 ug, read-out: Liver uptake): 0.695 %ID/g; tissue uptake at 4 h (liver, 4 h p.i. + xs (25 µg unlabeled GIP1-42), read-out: Liver uptake): 1.09 %ID/g; tissue uptake at 1 h (lung, 0.2 ug, 1 h p.i., read-out: Lung uptake): 0.545 %ID/g; tissue uptake at 4 h (lung, 0.2 ug, 4 h p.i., read-out: Lung uptake): 0.332 %ID/g; tissue uptake at 24 h (lung, 0.2 ug, read-out: Lung uptake): 0.184 %ID/g; tissue uptake at 4 h (lung, 4 h p.i. + xs (25 µg unlabeled GIP1-42), read-out: Lung uptake): 0.331 %ID/g; tissue uptake at 1 h (muscle, 0.2 ug, 1 h p.i., read-out: Muscle uptake): 0.135 %ID/g; tissue uptake at 4 h (muscle, 0.2 ug, 4 h p.i., read-out: Muscle uptake): 0.082 %ID/g; tissue uptake at 24 h (muscle, 0.2 ug, read-out: Muscle uptake): 0.058 %ID/g; tissue uptake at 4 h (muscle, 4 h p.i. + xs (25 µg unlabeled GIP1-42), read-out: Muscle uptake): 0.068 %ID/g; tissue uptake at 1 h (pancreas, 0.2 ug, 1 h p.i., read-out: Pancreas uptake): 0.296 %ID/g; tissue uptake at 4 h (pancreas, 0.2 ug, 4 h p.i., read-out: Pancreas uptake): 0.193 %ID/g; tissue uptake at 24 h (pancreas, 0.2 ug, read-out: Pancreas uptake): 0.137 %ID/g; tissue uptake at 4 h (pancreas, 4 h p.i. + xs (25 µg unlabeled GIP1-42), read-out: Pancreas uptake): 0.147 %ID/g; tissue uptake at 1 h (spleen, 0.2 ug, 1 h p.i., read-out: Spleen uptake): 0.603 %ID/g; tissue uptake at 4 h (spleen, 0.2 ug, 4 h p.i., read-out: Spleen uptake): 0.528 %ID/g; tissue uptake at 24 h (spleen, 0.2 ug, read-out: Spleen uptake): 0.493 %ID/g; tissue uptake at 4 h (spleen, 4 h p.i. + xs (25 µg unlabeled GIP1-42), read-out: Spleen uptake): 0.519 %ID/g; tissue uptake at 1 h (stomach, 0.2 ug, 1 h p.i., read-out: Stomach uptake): 0.502 %ID/g; tissue uptake at 4 h (stomach, 0.2 ug, 4 h p.i., read-out: Stomach uptake): 0.362 %ID/g; tissue uptake at 24 h (stomach, 0.2 ug, read-out: Stomach uptake): 0.258 %ID/g; tissue uptake at 4 h (stomach, 4 h p.i. + xs (25 µg unlabeled GIP1-42), read-out: Stomach uptake): 0.268 %ID/g; tissue to tissue ratio at 24 h (tumor and lung, 0.2 ug, read-out: Tumor/Lung): 11.3; tissue to tissue ratio at 1 h (tumor/blood, 0.2 ug, 1 h p.i., read-out: Tumor/Blood): 21.8; tissue to tissue ratio at 4 h (tumor/blood, 0.2 ug, 4 h p.i., read-out: Tumor/Blood): 77.6; tissue to tissue ratio at 24 h (tumor/blood, 0.2 ug, read-out: Tumor/Blood): 130
